Test results as given in patent publication US20240158418A1 (C4 Therapeutics, Inc., priority 2021, published 2024).
Like-named read-outs stand apart in the source and are kept apart here.

What was measured:
Assay type in all cases: cell-based
EGFR L858R-T790M-C797S = target: T1, EGFR L858R-T790M-C797S (Homo sapiens, UniProt P00533, C797S/L858R/T790M); experiment: EGFR degradation, Total EGFR (L858R-specific) HTRF, NCI-H1975+CS; conditions: Table 9B; NCI-H1975 C797S clone, 6 hours, Total EGFR HTRF; read-out: H1975 C797S clone EGFR DC50
T1 construct: generated using CRISPR technology to introduce the additional C797S mutation by Horizon Discovery; host or cells: NCI-H1975+CS (CRISPR knock-in of C797S)
T1 sequence (P00533 25-1210 T790M/C797S/L858R): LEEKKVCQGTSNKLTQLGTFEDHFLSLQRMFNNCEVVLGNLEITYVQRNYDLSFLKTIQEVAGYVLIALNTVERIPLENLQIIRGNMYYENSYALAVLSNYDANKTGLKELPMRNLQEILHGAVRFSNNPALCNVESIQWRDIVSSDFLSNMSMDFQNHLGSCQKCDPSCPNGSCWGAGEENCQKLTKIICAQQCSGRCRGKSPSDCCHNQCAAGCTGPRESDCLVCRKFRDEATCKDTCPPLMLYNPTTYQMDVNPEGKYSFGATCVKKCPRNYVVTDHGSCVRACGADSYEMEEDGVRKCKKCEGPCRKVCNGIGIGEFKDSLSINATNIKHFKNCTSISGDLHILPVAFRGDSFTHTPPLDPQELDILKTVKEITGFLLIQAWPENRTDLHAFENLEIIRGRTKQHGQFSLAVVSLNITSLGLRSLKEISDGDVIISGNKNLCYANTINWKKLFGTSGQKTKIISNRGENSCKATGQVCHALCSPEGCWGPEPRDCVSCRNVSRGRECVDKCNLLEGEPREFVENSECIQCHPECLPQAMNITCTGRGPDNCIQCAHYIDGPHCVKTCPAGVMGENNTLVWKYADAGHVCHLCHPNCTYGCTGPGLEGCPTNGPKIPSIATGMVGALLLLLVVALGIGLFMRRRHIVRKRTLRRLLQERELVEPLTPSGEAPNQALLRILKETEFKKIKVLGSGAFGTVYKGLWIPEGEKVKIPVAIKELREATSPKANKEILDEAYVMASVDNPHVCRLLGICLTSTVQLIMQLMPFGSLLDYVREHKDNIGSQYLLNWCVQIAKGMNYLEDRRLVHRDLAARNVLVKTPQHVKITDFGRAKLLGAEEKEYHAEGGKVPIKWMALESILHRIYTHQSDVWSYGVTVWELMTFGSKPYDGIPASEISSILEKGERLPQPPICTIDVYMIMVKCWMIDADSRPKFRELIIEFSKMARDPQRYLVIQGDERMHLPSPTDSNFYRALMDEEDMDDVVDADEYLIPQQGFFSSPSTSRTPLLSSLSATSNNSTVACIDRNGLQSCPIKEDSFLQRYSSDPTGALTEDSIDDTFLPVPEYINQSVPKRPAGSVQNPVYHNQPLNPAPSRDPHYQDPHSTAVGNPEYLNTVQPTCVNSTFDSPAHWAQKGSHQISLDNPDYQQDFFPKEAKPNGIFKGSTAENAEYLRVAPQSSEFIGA
From the text: (§1) NCI-H1975 (harboring EGFR heterozygous L858R-T790M mutations) and NCI-H3255 (harboring EGFR heterozygous L858R mutation) were purchased from ATCC and NCI, respectively. NCI-H1975+CS (harboring EGFR heterozygous L858R-T790M-C797S mutations) was generated using CRISPR technology to introduce the additional C797S mutation by Horizon Discovery. A431 (harboring EGFR wildtype) was purchased from ATCC. RPMI 1640 no-phenol red medium and fetal bovine serum (FBS) were purchased from Gibco (Grand Island, NY, USA). Cell culture flasks and 384-well microplates were acquired from VWR (Radnor, PA, USA). Phosphorylated (pY1068) EGFR and Total EGFR (using L858R-specific detection antibody and pan-EGFR antibody for EGFR mutant cell lines and EGFR wild-type cell lines, respectively) HTRF assay kits were purchased from Cisbio (Bedford, MA, USA).
(§2) Degradation of EGFR protein containing L858R mutation or wild-type was determined based on quantification of FRET signal using a Total EGFR (L858R-specific or pan-EGFR detecting) HTRF assay kit. Phospho-EGFR (pEGFR) inhibition was determined based on quantification of FRET signal using a pY1068 EGFR HTRF assay kit. In separate assay plates, test compounds were added to the 384-well plate from a top concentration of 10 μM with 11 points, half log titration in duplicates. For each assay, 12.5 uL of cells suspended in assay media (RPMI 1640 no-phenol red medium+10% FBS) at cell densities indicated for each cell line in Table 8 below were dispensed using a multi-channel pipette to 384-well low volume white HTRF microplates containing a duplicate concentration range of test compounds and DMSO controls. The plates were kept at 37° C. with 5% CO2 for 6 hours and then incubated with either phospho EGFR or Total EGFR HTRF detection antibodies according to the cell line and EGFR mutant being assayed. Cells treated in the absence of the test compound were the negative control. Positive control was set by wells containing all reagents but no cells. FRET signal was acquired on EnVision™ Multilabel Reader (PerkinElmer, Santa Clara, CA, USA). Compound concentration that achieves 50% degradation and inhibition was reported as DC50 and IC50, respectively.

EGFR L858R-T790M = target: T2, EGFR L858R-T790M (Homo sapiens, UniProt P00533, L858R/T790M); experiment: EGFR degradation, Total EGFR (L858R-specific) HTRF, NCI-H1975; conditions: NCI-H1975 cells, 6 hours, Total EGFR HTRF, read-out: H1975 EGFR DC50
T2 construct: NCI-H1975 (harboring EGFR heterozygous L858R-T790M mutations); host or cells: NCI-H1975
T2 sequence (P00533 25-1210 T790M/L858R): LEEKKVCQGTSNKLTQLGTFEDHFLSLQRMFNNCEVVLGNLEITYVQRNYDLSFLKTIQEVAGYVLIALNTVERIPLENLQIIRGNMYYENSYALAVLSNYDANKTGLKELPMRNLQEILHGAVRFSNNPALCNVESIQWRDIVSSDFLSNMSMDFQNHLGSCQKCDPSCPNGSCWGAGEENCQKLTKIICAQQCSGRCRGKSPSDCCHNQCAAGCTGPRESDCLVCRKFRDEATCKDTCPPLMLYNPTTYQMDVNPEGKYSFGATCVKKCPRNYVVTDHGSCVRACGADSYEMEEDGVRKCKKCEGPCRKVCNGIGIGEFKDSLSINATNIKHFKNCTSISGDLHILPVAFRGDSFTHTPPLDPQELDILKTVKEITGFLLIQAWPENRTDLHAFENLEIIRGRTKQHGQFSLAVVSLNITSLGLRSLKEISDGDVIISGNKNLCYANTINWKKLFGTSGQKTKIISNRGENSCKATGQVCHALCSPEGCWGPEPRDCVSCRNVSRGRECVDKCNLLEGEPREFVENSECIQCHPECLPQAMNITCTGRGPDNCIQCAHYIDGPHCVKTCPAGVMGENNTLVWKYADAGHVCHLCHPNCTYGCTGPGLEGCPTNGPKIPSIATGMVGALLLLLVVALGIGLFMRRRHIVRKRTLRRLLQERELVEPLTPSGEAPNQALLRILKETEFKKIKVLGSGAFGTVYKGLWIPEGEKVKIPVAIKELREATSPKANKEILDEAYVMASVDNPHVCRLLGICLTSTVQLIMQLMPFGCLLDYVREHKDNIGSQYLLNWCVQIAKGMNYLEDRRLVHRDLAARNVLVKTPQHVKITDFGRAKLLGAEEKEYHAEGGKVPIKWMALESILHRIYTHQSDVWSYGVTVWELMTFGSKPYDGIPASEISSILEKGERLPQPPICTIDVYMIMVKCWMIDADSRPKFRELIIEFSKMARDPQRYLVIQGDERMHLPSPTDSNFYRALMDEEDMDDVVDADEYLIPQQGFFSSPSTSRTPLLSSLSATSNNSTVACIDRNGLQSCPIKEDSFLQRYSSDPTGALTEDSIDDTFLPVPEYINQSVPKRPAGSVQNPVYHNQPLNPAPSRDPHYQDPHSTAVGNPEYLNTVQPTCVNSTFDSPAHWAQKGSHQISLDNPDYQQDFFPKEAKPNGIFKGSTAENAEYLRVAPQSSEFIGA
Procedure, shortened: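 FRET signal from HTRF kits measured phospho-EGFR at pY1068 or total EGFR after 6 h treatment at 37 °C. Compounds ran as 11-point half-log dilutions from 10 μM in duplicate, in cells in phenol red-free RPMI with 10% FBS. Concentrations giving 50% inhibition or degradation were reported as IC50 or DC50.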

EGFR L858R = EGFR L858R (Homo sapiens, UniProt P00533, L858R); experiment: EGFR degradation, Total EGFR (L858R-specific) HTRF, NCI-H3255; design: NCI-H3255 (harboring EGFR heterozygous L858R mutation); host or cells: NCI-H3255; conditions: NCI-H3255 cells, 6 hours, Total EGFR HTRF, read-out: H3255 EGFR DC50
EGFR L858R, sequence (P00533 25-1210 L858R): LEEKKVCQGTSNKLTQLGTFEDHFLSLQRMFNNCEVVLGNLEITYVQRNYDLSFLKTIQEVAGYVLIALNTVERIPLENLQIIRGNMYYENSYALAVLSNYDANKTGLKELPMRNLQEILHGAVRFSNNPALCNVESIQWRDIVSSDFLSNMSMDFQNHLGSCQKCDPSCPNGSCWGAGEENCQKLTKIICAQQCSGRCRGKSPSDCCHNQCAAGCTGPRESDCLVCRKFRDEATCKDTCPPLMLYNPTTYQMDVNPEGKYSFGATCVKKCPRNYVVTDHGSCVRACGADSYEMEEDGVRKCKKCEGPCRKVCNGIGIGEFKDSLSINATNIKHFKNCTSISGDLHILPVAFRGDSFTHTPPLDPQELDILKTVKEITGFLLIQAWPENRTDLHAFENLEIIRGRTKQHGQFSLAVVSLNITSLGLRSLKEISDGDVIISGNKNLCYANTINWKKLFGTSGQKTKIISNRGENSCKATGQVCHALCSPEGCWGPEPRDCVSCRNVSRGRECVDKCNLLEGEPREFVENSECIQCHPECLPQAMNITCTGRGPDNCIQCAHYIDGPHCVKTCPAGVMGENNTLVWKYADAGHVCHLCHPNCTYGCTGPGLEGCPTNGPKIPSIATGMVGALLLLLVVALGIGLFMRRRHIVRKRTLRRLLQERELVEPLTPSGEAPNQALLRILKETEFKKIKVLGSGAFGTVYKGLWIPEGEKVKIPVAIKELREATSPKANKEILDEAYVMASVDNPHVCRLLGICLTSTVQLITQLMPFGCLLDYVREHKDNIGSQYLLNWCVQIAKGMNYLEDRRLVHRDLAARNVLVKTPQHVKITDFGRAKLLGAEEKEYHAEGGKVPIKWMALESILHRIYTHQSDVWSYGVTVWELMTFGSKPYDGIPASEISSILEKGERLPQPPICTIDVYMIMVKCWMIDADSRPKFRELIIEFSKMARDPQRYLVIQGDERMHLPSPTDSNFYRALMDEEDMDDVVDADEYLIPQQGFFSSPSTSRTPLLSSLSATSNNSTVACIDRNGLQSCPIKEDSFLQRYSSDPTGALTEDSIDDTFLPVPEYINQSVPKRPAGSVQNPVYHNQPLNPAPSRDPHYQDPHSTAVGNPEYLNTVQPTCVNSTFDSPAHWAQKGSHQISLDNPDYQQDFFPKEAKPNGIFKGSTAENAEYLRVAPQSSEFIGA
From the text: as §1, §2

| DC50 (EGFR L858R-T790M-C797S) | DC50 (EGFR L858R-T790M; Table 9B) | DC50 (EGFR L858R; Table 9B) | Compound | further results |
| --- | --- | --- | --- | --- |
| < 0.05 µM | < 0.05 µM |  | Cn1nc(N2CCC(=O)NC2=O)c2ccc(C3CCN(CC(=O)N4CC5(C4)CN(c4ccc(-c6cc(F)c7c(c6)C(=O)N(C(C(=O)Nc6nccs6)c6ncn8c6CCC8)C7)cn4)C5)CC3(F)F)cc21 (stereo not drawn) [Compound 87, 2-(6,7-dihydro-5H-pyrrolo[1,2-c]imidazol-1-yl)-2-(6-(6-(6-(2-(4-(3-(2,4-dioxotetrahydropyrimidin-1(2H)-yl)-1-methyl-1H-indazol-6-yl)-3,3-difluoropiperidin-1-yl)acetyl)-2,6-diazaspiro[3.3]heptan-2-yl)pyridin-3-yl)-4-fluoro-1-oxoisoindolin-2-yl)-N-(thiazol-2-yl)acetamide] |  |
|  | 0.05 to 0.15 µM | < 0.05 µM | Cn1nc(N2CCC(=O)NC2=O)c2ccc(C3CCN(C(=O)CN4CCC(c5ccc(-c6cc(F)c7c(c6)C(=O)N(C(C(=O)Nc6nccs6)c6ncn8c6CCC8)C7)cc5)CC4)CC3)cc21 (stereo not drawn) [Compound 85, 2-(6,7-dihydro-5H-pyrrolo[1,2-c]imidazol-1-yl)-2-[6-[4-[1-[2-[4-[3-(2,4-dioxohexahydropyrimidin-1-yl)-1-methyl-indazol-6-yl]-1-piperidyl]-2-oxo-ethyl]-4-piperidyl]phenyl]-4-fluoro-1-oxo-isoindolin-2-yl]-N-thiazol-2-yl-acetamide] |  |
|  | < 0.05 µM | < 0.05 µM | O=C1CCC(Nc2ccc(N3CCC(O)(CC(=O)N4CCN(c5ccc(-c6cc(F)c7c(c6)C(=O)N(C(C(=O)Nc6nccs6)c6ncn8c6CCC8)C7)cc5)CC4)CC3)c(F)c2)C(=O)N1 (stereo not drawn) [Compound 83, 2-(6,7-dihydro-5H-pyrrolo[1,2-c]imidazol-1-yl)-2-[6-[4-[4-[2-[1-[4-[(2,6-dioxo-3-piperidyl)amino]-2-fluoro-phenyl]-4-hydroxy-4-piperidyl]acetyl]piperazin-1-yl]phenyl]-4-fluoro-1-oxo-isoindolin-2-yl]-N-thiazol-2-yl-acetamide] |  |
|  | < 0.05 µM | < 0.05 µM | Cn1nc(N2CCC(=O)NC2=O)c2ccc(C3CCN(C(=O)CN4CC5(C4)CN(c4ccc(-c6ccc7cn(C(C(=O)Nc8nccs8)c8ncn9c8CCC9)nc7c6F)cn4)C5)CC3(F)F)cc21 (stereo not drawn) [Compound 73, 2-(6,7-dihydro-5H-pyrrolo[1,2-c]imidazol-1-yl)-2-(6-(6-(6-(2-(4-(3-(2,4-dioxotetrahydropyrimidin-1(2H)-yl)-1-methyl-1H-indazol-6-yl)-3,3-difluoropiperidin-1-yl)-2-oxoethyl)-2,6-diazaspiro[3.3]heptan-2-yl)pyridin-3-yl)-7-fluoro-2H-indazol-2-yl)-N-(thiazol-2-yl)acetamide] |  |
|  | < 0.05 µM | < 0.05 µM | O=C1CCC(Nc2ccc(C3CCN(CC(=O)N4CCN(c5ccc(-c6cc(F)c7c(c6)C(=O)N(C(C(=O)Nc6nccs6)c6ncn8c6CCC8)C7)cc5)CC4)CC3)c(F)c2)C(=O)N1 (stereo not drawn) [Compound 180, 2-(6,7-dihydro-5H-pyrrolo[1,2-c]imidazol-1-yl)-2-[6-[4-[4-[2-[4-[4-[(2,6-dioxo-3-piperidyl)amino]-2-fluoro-phenyl]-1-piperidyl]acetyl]piperazin-1-yl]phenyl]-4-fluoro-1-oxo-isoindolin-2-yl]-N-thiazol-2-yl-acetamide] |  |

The next lines start with the compound.

| Compound | DC50 (EGFR L858R-T790M-C797S) | DC50 (EGFR L858R-T790M; Table 9B) | DC50 (EGFR L858R; Table 9B) | further results |
| --- | --- | --- | --- | --- |
| O=C1CC[C@H](Nc2ccc(C3CCN(C(=O)CC4(O)CCN(c5ccc(-c6ccc7cn(C(C(=O)Nc8nccs8)c8ncn9c8CCC9)nc7c6F)cc5)CC4)CC3)c(F)c2)C(=O)N1 (stereo partly drawn) [Compound 149, 2-(6,7-dihydro-5H-pyrrolo[1,2-c]imidazol-1-yl)-2-[6-[4-[4-[2-[4-[4-[[(3S)-2,6-dioxo-3-piperidyl]amino]-2-fluoro-phenyl]-1-piperidyl]-2-oxo-ethyl]-4-hydroxy-1-piperidyl]phenyl]-7-fluoro-indazol-2-yl]-N-thiazol-2-yl-acetamide] | < 0.05 µM |  |  |  |
| O=C1CC[C@H](Nc2ccc(C3CCN(C(=O)CC4(O)CCN(c5ccc(-c6cc(F)c7cn(C(C(=O)Nc8nccs8)c8ncn9c8CCC9)nc7c6)cn5)CC4)CC3)c(F)c2)C(=O)N1 (stereo partly drawn) [Compound 150, 2-(6,7-dihydro-5H-pyrrolo[1,2-c]imidazol-1-yl)-2-[6-[6-[4-[2-[4-[4-[[(3S)-2,6-dioxo-3-piperidyl]amino]-2-fluoro-phenyl]-1-piperidyl]-2-oxo-ethyl]-4-hydroxy-1-piperidyl]-3-pyridyl]-4-fluoro-indazol-2-yl]-N-thiazol-2-yl-acetamide] | < 0.05 µM |  |  |  |
| O=C1CC[C@H](Nc2ccc(C3CCN(CC(=O)N4CC5(CCN(c6ccc(-c7cc(F)c8c(c7)C(=O)N(C(C(=O)Nc7nccs7)c7ncn9c7CCC9)C8)cc6)CC5)C4)CC3)c(F)c2)C(=O)N1 (stereo partly drawn) [Compound 46, 2-(6,7-dihydro-5H-pyrrolo[1,2-c]imidazol-1-yl)-2-(6-(4-(2-(2-(4-(4-(((S)-2,6-dioxopiperidin-3-yl)amino)-2-fluorophenyl)piperidin-1-yl)acetyl)-2,7-diazaspiro[3.5]nonan-7-yl)phenyl)-4-fluoro-1-oxoisoindolin-2-yl)-N-(thiazol-2-yl)acetamide] |  |  |  | DC50 (EGFR L858R; Table 9A): 0.05 to 0.15 µM; DC50 (EGFR L858R-T790M; Table 9A): 0.05 to 0.15 µM |
| C[C@@H]1CC(O)(CC(=O)N2CC3(C2)CN(c2ccc(-c4cc(F)c5cn(C(C(=O)Nc6nccs6)c6ncn7c6CCC7)nc5c4)cc2)C3)C[C@H](C)N1c1ccc(NC2CCC(=O)NC2=O)cc1F (stereo partly drawn) [Compound 148, 2-(6,7-dihydro-5H-pyrrolo[1,2-c]imidazol-1-yl)-2-[6-[4-[2-[2-[(2s,6r)-1-[4-[(2,6-dioxo-3-piperidyl)amino]-2-fluoro-phenyl]-4-hydroxy-2,6-dimethyl-4-piperidyl]acetyl]-2,6-diazaspiro[3.3]heptan-6-yl]phenyl]-4-fluoro-indazol-2-yl]-N-thiazol-2-yl-acetamide] | < 0.05 µM |  |  |  |
| O=C1CC[C@H](Nc2ccc(C3CCN(CC(=O)N4CCN(c5ccc(-c6cc(F)c7c(c6)C(=O)N(C(C(=O)Nc6nccs6)c6ncn8c6CCC8)C7)cn5)CC4)CC3)c(F)c2)C(=O)N1 (stereo partly drawn) [Compound 27] |  |  |  | DC50 (EGFR L858R; Table 9A): < 0.05 µM; DC50 (EGFR L858R-T790M; Table 9A): < 0.05 µM |
| O=C1CCN(c2ccc(N3CCC(O)(CC(=O)N4CC5(C4)CN(c4ccc(-c6cc(F)c7cn(C(C(=O)Nc8nccs8)c8ncn9c8CCC9)nc7c6)cc4)C5)CC3)c(F)c2)C(=O)N1 (stereo not drawn) [Compound 147] | < 0.05 µM |  |  |  |
| O=C1CCC(Nc2ccc(N3CCC(O)(CC(=O)N4CC5(C4)CN(c4ccc(-c6cc(F)c7c(c6)C(=O)N(C(C(=O)Nc6nccs6)c6ncn8c6CCC8)C7)cc4)C5)CC3)c(C(F)F)c2)C(=O)N1 (stereo not drawn) [Compound 104, 2-(6-(4-(6-(2-(1-(2-(difluoromethyl)-4-((2,6-dioxopiperidin-3-yl)amino)phenyl)-4-hydroxypiperidin-4-yl)acetyl)-2,6-diazaspiro[3.3]heptan-2-yl)phenyl)-4-fluoro-1-oxoisoindolin-2-yl)-2-(6,7-dihydro-5H-pyrrolo[1,2-c]imidazol-1-yl)-N-(thiazol-2-yl)acetamide] |  | < 0.05 µM | < 0.05 µM |  |
| O=C1CC[C@H](Nc2ccc(C3CCN(C(=O)CC4(O)CCN(c5ccc(-c6ccc7cn(C(C(=O)Nc8nccs8)c8ncn9c8CCC9)nc7c6F)cn5)CC4)CC3)c(F)c2)C(=O)N1 (stereo partly drawn) [Compound 151, 2-(6,7-dihydro-5H-pyrrolo[1,2-c]imidazol-1-yl)-2-[6-[6-[4-[2-[4-[4-[[(3S)-2,6-dioxo-3-piperidyl]amino]-2-fluoro-phenyl]-1-piperidyl]-2-oxo-ethyl]-4-hydroxy-1-piperidyl]-3-pyridyl]-7-fluoro-indazol-2-yl]-N-thiazol-2-yl-acetamide] | < 0.05 µM |  |  |  |
